Key:
[1] = system: barnyardgrass; assay: Test A pre-/postemergence herbicide test; format: in vivo, Echinochloa crus-galli; conditions: for Barnyardgrass plant response rating: Preemergence, visual rating on 0 to 100 scale (0 no effect, 100 complete control)
Summary of the method: (§1)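 Visual 0–100 ratings (100 = complete control) made about 10 days after treatment, greenhouse-held plants compared with untreated controls. Treatments: postemergence sprays on one- to two-leaf plants (2–10 cm tall) and preemergence directed soil sprays after planting in loam–sand, chemicals formulated in non-phytotoxic solvent containing surfactant.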

[2] = system: crabgrass, large; assay: Test A pre-/postemergence herbicide test; format: in vivo, Digitaria sanguinalis; conditions: for Crabgrass, Large plant response rating: Preemergence, visual rating on 0 to 100 scale (0 no effect, 100 complete control)
Summary of the method: as §1

[3] = system: giant foxtail; assay: Test A pre-/postemergence herbicide test; format: in vivo, Setaria faberii; conditions: for Foxtail, Giant plant response rating: Preemergence, visual rating on 0 to 100 scale (0 no effect, 100 complete control)
Summary of the method: as §1

[4] = system: morningglory; assay: Test A pre-/postemergence herbicide test; format: in vivo, Ipomoea spp.; conditions: for Morningglory plant response rating: Preemergence, visual rating on 0 to 100 scale (0 no effect, 100 complete control)
Summary of the method: as §1

[5] = system: pigweed; assay: Test A pre-/postemergence herbicide test; format: in vivo, Amaranthus retroflexus; conditions: for Pigweed plant response rating: Preemergence, visual rating on 0 to 100 scale (0 no effect, 100 complete control)
Summary of the method: as §1

[6] = system: velvetleaf; assay: Test A pre-/postemergence herbicide test; format: in vivo, Abutilon theophrasti; conditions: for Velvetleaf plant response rating: Preemergence, visual rating on 0 to 100 scale (0 no effect, 100 complete control)
Summary of the method: as §1

[7] = system: wheat; assay: Test A pre-/postemergence herbicide test; format: in vivo, Triticum aestivum; conditions: for Wheat plant response rating: Preemergence, visual rating on 0 to 100 scale (0 no effect, 100 complete control)
Summary of the method: as §1

[8] = system: corn; assay: Test A pre-/postemergence herbicide test; format: in vivo, Zea mays; conditions: for Corn plant response rating: Preemergence, visual rating on 0 to 100 scale (0 no effect, 100 complete control)
Summary of the method: as §1

[9] = system: rice; assay: Test B flooded paddy test; format: in vivo, Oryza sativa; conditions: 250 g ai/ha, Flood; scale of 0 to 100 where 0 is no effect and 100 is complete control
Summary of the method: (§2)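 First, plants reach the 2-leaf stage; next, pots are flooded to 3 cm and compound is delivered into the water; finally, after 13 to 15 greenhouse days at constant depth, injury is graded visually from 0 to 100 against controls.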

[10] = system: sedge, umbrella; assay: Test B flooded paddy test; format: in vivo, Cyperus difformis; conditions: 250 g ai/ha, Flood; scale of 0 to 100 where 0 is no effect and 100 is complete control
Summary of the method: as §2

[11] = system: ducksalad; assay: Test B flooded paddy test; format: in vivo, Heteranthera limosa; conditions: 250 g ai/ha, Flood; scale of 0 to 100 where 0 is no effect and 100 is complete control
Summary of the method: as §2

[12] = system: barnyardgrass; assay: Test B flooded paddy test; format: in vivo, Echinochloa crus-galli; conditions: 250 g ai/ha, Flood; scale of 0 to 100 where 0 is no effect and 100 is complete control
Summary of the method: as §2

[13] = Postemergence, 125 g ai/ha, 0 to 100 scale, 0 no effect, 100 complete control
[14] = Postemergence, 500 g ai/ha, 0 to 100 scale (0 no effect, 100 complete control)
[15] = preemergence, 500 g ai/ha, 0 to 100 scale (0 no effect, 100 complete control)
[16] = preemergence, 500 g ai/ha, 0 to 100 scale

Row | Compound | Plant response rating, Barnyardgrass [1, 13] | Plant response rating, Barnyardgrass [1, 14] | Barnyardgrass plant response rating ([1]; 125 g ai/ha) | Plant response rating, Barnyardgrass [1, 15] | Plant response rating, Crabgrass, Large [2, 13] | Plant response rating, Crabgrass, Large [2, 14] | Crabgrass, Large plant response rating ([2]; 125 g ai/ha) | Plant response rating, Crabgrass, Large [2, 16] | Plant response rating, Foxtail, Giant [3, 13] | Plant response rating, Foxtail, Giant [3, 14] | Foxtail, Giant plant response rating ([3]; 125 g ai/ha) | Plant response rating, Foxtail, Giant [3, 16] | Plant response rating, Morningglory [4, 13] | Plant response rating, Morningglory [4, 14] | Morningglory plant response rating ([4]; 125 g ai/ha) | Plant response rating, Morningglory [4, 16] | Plant response rating, Pigweed [5, 13] | Plant response rating, Pigweed [5, 14] | Pigweed plant response rating ([5]; 125 g ai/ha) | Plant response rating, Pigweed [5, 16] | further results
1 | O=C1NCC(c2ccccc2)C1C(=O)Nc1cccc(F)c1F (stereo not drawn) [Compound 65] | 20 | 70 | 40 | 90 | 90 | 90 | 90 | 90 | 50 | 90 | 80 | 90 | 0 | 20 | 0 | 0 | 0 | 0 | 0 | 0 | Plant response rating, Velvetleaf [6, 13]: 0; Plant response rating, Velvetleaf [6, 14]: 30; Velvetleaf plant response rating ([6]; 125 g ai/ha): 0; Plant response rating, Velvetleaf [6, 16]: 0; Plant response rating, Wheat [7, 13]: 0; Plant response rating, Wheat [7, 14]: 20; Wheat plant response rating ([7]; 125 g ai/ha): 0; Plant response rating, Wheat [7, 16]: 0; Plant response rating, Corn [8, 13]: 0; Plant response rating, Corn [8, 14]: 20; Corn plant response rating ([8]; 125 g ai/ha): 0; Plant response rating, Corn [8, 16]: 0; Plant response rating, Rice [9]: 0; Plant response rating, Sedge, Umbrella [10]: 40; Plant response rating, Ducksalad [11]: 80; Plant response rating, Barnyardgrass [12]: 0
2 | O=C1NCC(c2ccc(F)c(F)c2)C1C(=O)Nc1cccc(F)c1C(F)(F)F (stereo not drawn) [Compound 67] | 40 | 60 | 30 | 70 | 50 | 90 | 90 | 90 | 80 | 90 | 80 | 90 | 0 | 0 | 0 | 0 | 0 | 20 | 0 | 0 | Plant response rating, Velvetleaf [6, 13]: 0; Plant response rating, Velvetleaf [6, 14]: 0; Velvetleaf plant response rating ([6]; 125 g ai/ha): 0; Plant response rating, Velvetleaf [6, 16]: 0; Plant response rating, Wheat [7, 13]: 0; Plant response rating, Wheat [7, 14]: 0; Wheat plant response rating ([7]; 125 g ai/ha): 0; Plant response rating, Wheat [7, 16]: 0; Plant response rating, Corn [8, 13]: 0; Plant response rating, Corn [8, 14]: 0; Corn plant response rating ([8]; 125 g ai/ha): 0; Plant response rating, Corn [8, 16]: 0; Plant response rating, Rice [9]: 0; Plant response rating, Sedge, Umbrella [10]: 50; Plant response rating, Ducksalad [11]: 70; Plant response rating, Barnyardgrass [12]: 0
3 | CC(C)(C)OC(=O)Nc1cccc(C2CNC(=O)C2C(=O)Nc2cccc(F)c2F)c1 (stereo not drawn) [Compound 70] | 20 | 60 | 20 | 90 | 20 | 70 | 80 | 90 | 20 | 80 | 70 | 90 | 0 | 0 | 0 | 0 | 0 | 20 | 0 | 0 | Plant response rating, Velvetleaf [6, 13]: 0; Plant response rating, Velvetleaf [6, 14]: 20; Velvetleaf plant response rating ([6]; 125 g ai/ha): 0; Plant response rating, Velvetleaf [6, 16]: 0; Plant response rating, Wheat [7, 13]: 0; Plant response rating, Wheat [7, 14]: 40; Wheat plant response rating ([7]; 125 g ai/ha): 0; Plant response rating, Wheat [7, 16]: 20; Plant response rating, Corn [8, 13]: 0; Plant response rating, Corn [8, 14]: 0; Corn plant response rating ([8]; 125 g ai/ha): 0; Plant response rating, Corn [8, 16]: 0; Plant response rating, Rice [9]: 35; Plant response rating, Sedge, Umbrella [10]: 70; Plant response rating, Ducksalad [11]: 85; Plant response rating, Barnyardgrass [12]: 40

Source: US10294202B2, “Pyrrolidinones as herbicides” (FMC Corporation, priority 2013, dated 2019)
